According to the supplement of paper PMC4932681:

Tests used:
Assay in all cases: viability inhibition at highest dose (% inhibition); higher = more growth inhibition
MCF-7 = conditions: 72 h
Description: (§1)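 Percent inhibition of viability (CellTiter-Glo, 72 h) at the highest tested concentration (D5), normalised to DMSO (0%) and 100 µM benzethonium chloride (100%). Resistant lines and the 'in 1µM tamoxifen' arms were tested in 1 µM 4-OH-tamoxifen.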

ZR-75-1 Tam2 = conditions: 4-OH-tamoxifen in medium 1 µM; 72 h
Description: as §1

MCF-7 Tam1 = conditions: 4-OH-tamoxifen in medium 1 µM; 72 h
Description: as §1

BT-474 = conditions: 72 h
Description: as §1

T-47D Tam1 = conditions: 4-OH-tamoxifen in medium 1 µM; 72 h
Description: as §1

T-47D Tam2 = conditions: 4-OH-tamoxifen in medium 1 µM; 72 h
Description: as §1

ZR-75-1 Tam1 = conditions: 4-OH-tamoxifen in medium 1 µM; 72 h
Description: as §1

BT-474 Tam1 = conditions: 4-OH-tamoxifen in medium 1 µM; 72 h
Description: as §1

T-47D = conditions: 72 h
Description: as §1

BT-474 Tam2 = conditions: 4-OH-tamoxifen in medium 1 µM; 72 h
Description: as §1

ZR-75-1 = conditions: 72 h
Description: as §1

Row | SMILES | viability inhibition at highest dose (MCF-7; 4-OH-tamoxifen in medium 0 µM) | viability inhibition at highest dose (MCF-7; 4-OH-tamoxifen in medium 1 µM) | viability inhibition at highest dose (ZR-75-1 Tam2) | viability inhibition at highest dose (MCF-7 Tam1) | viability inhibition at highest dose (BT-474; 4-OH-tamoxifen in medium 0 µM) | viability inhibition at highest dose (BT-474; 4-OH-tamoxifen in medium 1 µM) | viability inhibition at highest dose (T-47D Tam1) | viability inhibition at highest dose (T-47D Tam2) | viability inhibition at highest dose (ZR-75-1 Tam1) | viability inhibition at highest dose (BT-474 Tam1) | viability inhibition at highest dose (T-47D; 4-OH-tamoxifen in medium 0 µM) | viability inhibition at highest dose (T-47D; 4-OH-tamoxifen in medium 1 µM) | viability inhibition at highest dose (BT-474 Tam2) | viability inhibition at highest dose (ZR-75-1; 4-OH-tamoxifen in medium 0 µM) | viability inhibition at highest dose (ZR-75-1; 4-OH-tamoxifen in medium 1 µM)
1 | CO[C@H]1C[C@@H]2CC[C@@H](C)[C@@](O)(O2)C(=O)C(=O)N2CCCC[C@H]2C(=O)O[C@H]([C@H](C)C[C@@H]2CC[C@@H](O)[C@H](OC)C2)CC(=O)[C@H](C)/C=C(\C)[C@@H](O)[C@@H](OC)C(=O)[C@H](C)C[C@H](C)/C=C/C=C/C=C/1C [Sirolimus (Rapamycin)] (drug 1000 nM) | 45.5 | 35.8 | 36.3 | 7.86 | 17.8 | 13.2 | 34.8 | 26.9 | 33.3 | 21.7 | 28.5 | 13.8 | 24.1 | 38.1 | 31
2 | CC(C)(C)NC(=O)[C@H]1CC[C@H]2[C@@H]3CC[C@H]4NC(=O)C=C[C@]4(C)[C@H]3CC[C@]12C [Finasteride] (drug 10000 nM) | -0.974 | 6.29 | 4.5 | 3.61 | -6.68 | -0.99 | 14.8 | 18 | -2.42 | 27.2 | -5.04 | -8.61 | 19.1 | -8.28 | 7.55
3 | Nc1cc(C(F)(F)F)c(-c2cc(N3CCOCC3)nc(N3CCOCC3)n2)cn1 [Buparlisib (BKM-120)] (drug 10000 nM) | 72.8 | 72.2 | 61.8 | 42.8 | 64.5 | 88.6 | 70.7 | 71.3 | 57 | 93.8 | 75.8 | 77.6 | 89.9 | 57.9 | 48.8
4 | COc1c2occc2cc2ccc(=O)oc12 [Methoxsalen] (drug 10000 nM) | -6.63 | 1.6 | -6.82 | -6.39 | -4.57 | 7.92 | -4.99 | 7.26 | 2.54 | 10.8 | -17.2 | -5.34 | 1.89 | -8.57 | 1.74
5 | CC[C@@H]1C(=O)N(C)c2cnc(Nc3ccc(C(=O)N[C@H]4CC[C@H](N5CCN(CC6CC6)CC5)CC4)cc3OC)nc2N1C(C)C [Volasertib (BI 6727)] (drug 1000 nM) | 24.2 | 24.7 | 18.7 | 0.498 | 13.2 | 25.5 | 24.6 | 21.4 | 18.7 | 26 | 30.8 | -1.17 | 9.62 | 7.01 | 16.1
6 | Clc1ccc(Nc2nnc(Cc3ccncc3)c3ccccc23)cc1 [Vatalanib] (drug 10000 nM) | -22.9 | 8.24 | 6.59 | -1.69 | -9.23 | 0.775 | 26.3 | 7.23 | -0.807 | 10.7 | -9.2 | -8.84 | 10.3 | -6.3 | -2.47
7 | CC(C)C[C@H](NC(=O)[C@H](Cc1ccccc1)NC(=O)c1cnccn1)B(O)O [Bortezomib] (drug 1000 nM) | 74.1 | 92.4 | 64.6 | 73.6 | 62.6 | 97.9 | 97.2 | 96.2 | 71.5 | 98.8 | 94.5 | 93.6 | 98.7 | 71 | 64
8 | NC(=O)c1ccc(I)c([N+](=O)[O-])c1 (drug 10000 nM) | 2.33 | -5.76 | -0.492 | 2 | 3.04 | -11 | 7.73 | 14.7 | 7.66 | -6.12 | -4.63 | -1.38 | -6.48 | -1.66 | 4.93
9 | c1ccc2c(CCNc3ccc(Nc4ccncc4)cc3)c[nH]c2c1 (drug 10000 nM) | 62.4 | 22.2 | 32.2 | 12.8 | -5.93 | 78 | 20.6 | 22.6 | 21.8 | 91.8 | 16.5 | 9.19 | 37.9 | 14 | 25.5
10 | CC(C)C[C@H](NC(=O)[C@@H](COC(C)(C)C)NC(=O)[C@H](Cc1ccc(O)cc1)NC(=O)[C@H](CO)NC(=O)[C@H](Cc1c[nH]c2ccccc12)NC(=O)[C@H](Cc1cnc[nH]1)NC(=O)[C@@H]1CCC(=O)N1)C(=O)N[C@@H](CCCNC(=N)N)C(=O)N1CCC[C@H]1C(=O)NNC(N)=O [Goserelin acetate] (drug 10000 nM) | -35 | 2.51 | -3.44 | -8.86 | -9.97 | -17.3 | 3.41 | 13 | 3.63 | 4.09 | -9.98 | -8.33 | 3.49 | -9.52 | -3.92
11 | N#CC[C@H](C1CCCC1)n1cc(-c2ncnc3[nH]ccc23)cn1 (drug 10000 nM) | 1.33 | -20.6 | -7.38 | -11.4 | -21.3 | -53.3 | -14.3 | -5.81 | -14.2 | -28.1 | -12.9 | -14.9 | -31.9 | -0.421 | -1.41
12 | O=C(O)C1(C(=O)O)CCC1.[NH2-].[NH2-].[Pt+2] [Carboplatin] (drug 10000 nM) | 1.69 | 6.48 | -0.671 | -6.52 | -12.2 | -19 | -4.98 | 1.93 | 2.36 | -1.28 | -16.3 | -18 | 3.89 | -16.2 | -1.87
13 | S=P(N1CC1)(N1CC1)N1CC1 [Thio-TEPA] (drug 100000 nM) | -13.2 | 9.81 | 4.16 | -0.761 | -3.59 | -5.3 | 3.55 | -1.13 | 11.1 | 11.3 | 2.16 | -2.96 | 9.92 | 4.61 | -3.56
14 | O=C(CCBr)N1CCN(C(=O)CCBr)CC1 [Pipobroman] (drug 10000 nM) | -15.2 | 9.48 | -10.5 | -9.06 | -11.7 | -7.15 | 1.06 | 9.55 | 1.68 | -12.7 | -14.7 | -5.88 | -8.7 | -15 | -9.45
15 | N#Cc1ccc(C(c2ccc(C#N)cc2)n2cncn2)cc1 [Letrozole] (drug 10000 nM) | -10.7 | -14.2 | -2.74 | -6.5 | -5.7 | -8.86 | -0.0184 | 6.57 | -0.517 | -6.74 | -9.48 | 0.428 | -3.68 | -2.82 | -9.49
16 | C[C@]12CC[C@@H]3c4ccc(OC(=O)N(CCCl)CCCl)cc4CC[C@H]3[C@@H]1CC[C@@H]2O [Estramustine] (drug 990000 nM) | -17 | -12.1 | -3.72 | -4.18 | -9.96 | -0.556 | -1.27 | 4.35 | 0.469 | -8.94 | -27.1 | -3.37 | 1.08 | -4.2 | 3.75
17 | O=C(CCCCCCC(=O)Nc1ccc([C@H]2O[C@@H](CSc3nc(-c4ccccc4)c(-c4ccccc4)o3)C[C@@H](c3ccc(CO)cc3)O2)cc1)NO [Tubacin] (drug 10000 nM) | 55.1 | 67.2 | 19.2 | 22.1 | 28.3 | 84.7 | 45.1 | 39.4 | 32.9 | 21.5 | 57.8 | 90.2 | 33.8 | 18.1 | 24.4
18 | COc1ccc(-c2ccc3c(N4CCOC[C@@H]4C)nc(N4CCOC[C@@H]4C)nc3n2)cc1CO [AZD8055] (drug 10000 nM) | 72.4 | 56.5 | 61 | 34.5 | 43.2 | 77.2 | 54.4 | 58.3 | 57.3 | 80.1 | 61 | 55.9 | 56.1 | 60 | 50.2
19 | CNC(=O)c1ccc(N2C(=S)N(c3ccc(C#N)c(C(F)(F)F)c3)C(=O)C2(C)C)cc1F [Enzalutamide (MDV 3100)] (drug 10000 nM) | -11.1 | 14.2 | 5.9 | 5.74 | -1.06 | -10 | 14 | 7.78 | 6.65 | 7.43 | -6.05 | 1.03 | 14.2 | -12.4 | -0.801
20 | C[C@]12O[C@H](C[C@]1(O)CO)n1c3ccccc3c3c4c(c5c6ccccc6n2c5c31)CNC4=O [Lestaurtinib] (drug 1000 nM) | 21.4 | 9.26 | 12.4 | 21.2 | 10.1 | 42.1 | -16.2 | -5.08 | 1.32 | 46.3 | -13.3 | 19.6 | 24.5 | 8.87 | 8.3
21 | O=c1[nH]cc(F)c(=O)[nH]1 [Fluorouracil] (drug 10000 nM) | 35.1 | 4.26 | 17.1 | 8.84 | -7.65 | -2.76 | 5.54 | 9.76 | 8.57 | 1.71 | 13.4 | 10.1 | 0.595 | 16.4 | 15.2
22 | CNNCc1ccc(C(=O)NC(C)C)cc1 [Procarbazine] (drug 10000 nM) | -15.7 | -26.1 | -4.74 | -2.96 | -6.73 | -0.151 | 0.22 | 18.8 | 5.75 | 3.72 | -8.64 | 3.29 | -9.69 | -8.18 | 1.35
23 | COc1cccc2cc(-c3nc([C@H]4CC[C@H](C(=O)O)CC4)n4ncnc(N)c34)[nH]c12 [OSI-027] (drug 10000 nM) | 44.4 | 43.9 | 65.5 | 30.1 | 35.5 | 47.5 | 55.6 | 38 | 52.6 | 38.1 | 62.6 | 42.7 | 35.6 | 60.5 | 52.9
24 | CN1CCN(c2nc(C3=C(c4c[nH]c5ccccc45)C(=O)NC3=O)c3ccccc3n2)CC1 [Sotrastaurin] (drug 10000 nM) | 21.3 | 10 | 7.03 | 8.16 | 9.38 | 48.9 | 8.91 | 6.92 | 9.64 | 65.2 | -8.99 | 1.91 | 25.2 | 6.75 | 14.4
25 | O=C(O)CC[C@H]1CC[C@@](c2cc(F)ccc2F)(S(=O)(=O)c2ccc(Cl)cc2)CC1 [MK-0752] (drug 1000 nM) | -24.6 | 1.59 | -2.73 | -0.531 | -9.96 | -12.2 | 2.67 | 4.08 | -3.02 | -7.32 | -16.2 | -1.71 | 2.64 | -11.9 | -13.3
26 | CO[C@@H](C(=O)N1Cc2[nH]nc(NC(=O)c3ccc(N4CCN(C)CC4)cc3)c2C1)c1ccccc1 (drug 10000 nM) | 20.9 | 7.45 | -19.5 | 8.32 | -18.6 | -36.3 | 38.4 | 34.4 | -23.1 | -17.9 | 29.4 | 17.6 | -18.2 | -27.9 | -21.1
27 | Cc1ccc(C(=O)N(CCCN)[C@@H](c2oc3cc(Cl)ccc3c(=O)c2Cc2ccccc2)C(C)C)cc1 (drug 100 nM) | 5.45 | 19.8 | -13.3 | -9.67 | -10.2 | -22.8 | -2.81 | 7.13 | -7.2 | -6.24 | -16.7 | -5.16 | -0.695 | -10.8 | -9.18
